What all share (assay type): functional
For test [1], the system named is Rattus norvegicus. The test can be described thus: Induction of libido-enhancing activity in Wistar rat assessed as number of intromission at 5 mg/kg, po pre-treated for 30 mins followed by female rat introduction and measured up to 2 hrs (reference value: 76 +/- 11). Conditions: time hrs <=2.5.
Test [2] relates to Rattus norvegicus. The test can be described thus: Induction of libido-enhancing activity in Wistar rat assessed as number of intromission at 5 mg/kg, po pre-treated for 30 mins followed by female rat introduction and measured up to 1 hr (reference value: 63 +/- 7.7). The following applies: time hrs <=1.5.
The test system of test [3] is Rattus norvegicus. The test can be described thus: Induction of libido-enhancing activity in Wistar rat assessed as total number of mount at 5 mg/kg, po pre-treated for 30 mins followed by female rat introduction (reference value: 3.9 +/- 1.2). The following applies: 0.5 h.
Test [4] relates to Rattus norvegicus. The test can be described thus: Induction of libido-enhancing activity in Wistar rat assessed as number of mount at 5 mg/kg, po pre-treated for 30 mins followed by female rat introduction and measured up to 3 hrs (reference value: 3.9 +/- 1.2). The following applies: time hrs <=3.5.
Test [5] has as its system Rattus norvegicus. The test can be described thus: Induction of libido-enhancing activity in Wistar rat assessed as number of mount at 5 mg/kg, po pre-treated for 30 mins followed by female rat introduction and measured up to 2 hrs (reference value: 9.1 +/- 3). Conditions: time hrs <=2.5.
The test system of test [6] is Rattus norvegicus. The test can be described thus: Induction of libido-enhancing activity in Wistar rat assessed as number of mount at 5 mg/kg, po pre-treated for 30 mins followed by female rat introduction and measured up to 1 hr (reference value: 16 +/- 6.9). Conditions: time hrs <=1.5.
Test [7] deals with Rattus norvegicus. The test can be described thus: Induction of libido-enhancing activity in Wistar rat assessed as copulatory plugs at 5 mg/kg, po pre-treated for 30 mins followed by female rat introduction and measured up to 3 hrs (reference value: 4.2 +/- 0.6 sec). The following applies: time min <=210.
Test [8] deals with Rattus norvegicus. The test can be described thus: Induction of libido-enhancing activity in Wistar rat assessed as ejaculation post interval time at 5 mg/kg, po pre-treated for 30 mins followed by female rat introduction and measured up to 3 hrs (reference value: 760 +/- 50 sec). Conditions: time min <=210.
Test [9] concerns Rattus norvegicus. The test can be described thus: Induction of libido-enhancing activity in Wistar rat assessed as ejaculation latency latency time at 5 mg/kg, po pre-treated for 30 mins followed by female rat introduction and measured up to 3 hrs (reference value: 1300 +/- 320 sec). The following applies: time min <=210.
In test [10] the test system is Rattus norvegicus. The test can be described thus: Induction of libido-enhancing activity in Wistar rat assessed as intromission ratio at 5 mg/kg, po pre-treated for 30 mins followed by female rat introduction and measured up to 3 hrs (reference value: 86 +/- 4.1%). The following applies: time min <=210.
For test [11], the system named is Rattus norvegicus. The test can be described thus: Induction of libido-enhancing activity in Wistar rat assessed as mount frequency at 5 mg/kg, po pre-treated for 30 mins followed by female rat introduction and measured up to 3 hrs (reference value: 5.8 +/- 2.1). Conditions: time min <=210.
The test system of test [12] is Rattus norvegicus. The test can be described thus: Induction of libido-enhancing activity in Wistar rat assessed as intromission frequency at 5 mg/kg, po pre-treated for 30 mins followed by female rat introduction and measured up to 3 hrs (reference value: 35 +/- 5). Conditions: time min <=210.
Test [13] deals with Rattus norvegicus. The test can be described thus: Induction of libido-enhancing activity in Wistar rat assessed as intromission latency time at 5 mg/kg, po pre-treated for 30 mins followed by female rat introduction and measured up to 3 hrs (reference value: 270 +/- 68 sec). The following applies: time min <=210.
For test [14], the system named is Rattus norvegicus. The test can be described thus: Induction of libido-enhancing activity in Wistar rat assessed as first behavior latency time at 5 mg/kg, po pre-treated for 30 mins followed by female rat introduction and measured up to 3 hrs (reference value: 200 +/- 40 sec). The following applies: time min <=210.
Test [15] relates to Rattus norvegicus. The test can be described thus: Induction of libido-enhancing activity in Wistar rat assessed as number of intromission at 5 mg/kg, po pre-treated for 30 mins followed by female rat introduction and measured up to 3 hrs (reference value: 49 +/- 8.5). The following applies: time hrs <=3.5.
The subject of test [16] is Rattus norvegicus. The test can be described thus: Induction of libido-enhancing activity in Wistar rat assessed as number of intromission at 5 mg/kg, po pre-treated for 30 mins followed by female rat introduction (reference value: 170 +/- 32). Conditions: 0.5 h.
The test system of test [17] is Rattus norvegicus. The test can be described thus: Induction of libido-enhancing activity in Wistar rat assessed as number of ejaculations at 5 mg/kg, po pre-treated for 30 mins followed by female rat introduction and measured up to 1 hr (reference value: 2.2 +/- 0.4). The following applies: time hrs <=1.5.
Test [18] has as its system Rattus norvegicus. The test can be described thus: Induction of libido-enhancing activity in Wistar rat assessed as number of ejaculations at 5 mg/kg, po pre-treated for 30 mins followed by female rat introduction and measured up to 2 hrs (reference value: 2.2 +/- 0.3). Conditions: time hrs <=2.5.
In test [19] the test system is Rattus norvegicus. The test can be described thus: Induction of libido-enhancing activity in Wistar rat assessed as number of ejaculations at 5 mg/kg, po pre-treated for 30 mins followed by female rat introduction and measured up to 3 hrs (reference value: 1.2 +/- 0.3). The following applies: time hrs <=3.5.
Test [20] deals with Rattus norvegicus. The test can be described thus: Induction of libido-enhancing activity in Wistar rat assessed as number of ejaculations at 5 mg/kg, po pre-treated for 30 mins followed by female rat introduction (reference value: 5.5 +/- 0.6). The following applies: 0.5 h.

Positions of bridges follow the written chain, without caps; N, C: chain ends. Residues, ends and D or L forms follow the SMILES beside them.

Regarding `CC(=O)CC(O)(CC(C)=O)C(C)=O.CCCc1nn(C)c2c(=O)nc(-c3cc(S(=O)(=O)N4CCN(C)CC4)ccc3OCC)[nH]c12`, the Activity was determined as 63 in test [1]; 65 in test [2]; 26 in test [3]; 2.3 in test [4]; 6.7 in test [5]; 8.3 in [6]. The Activity was found to be 6 in test [7]; 85% in [10]; 4.7 in [11]; 23 in test [12]; 38 in [15]; 180 in test [16]. Further, the Activity in [17] is 2; in [18], 2.8; in [19], 2.2; in test [20], 7.7. The Time in test [8] is recorded as 860 s; in [9], 940 s; in test [13], 96 s; in test [14], 96 s.

Turning to `CC[C@H](C)[C@@H]1NC(=O)[C@H](C)NC(=O)[C@H](C)NC(=O)[C@H]([C@@H](C)O)NC(=O)[C@H](Cc2ccccc2)NC(=O)[C@@H]2CSSC[C@@H](C(=O)N[C@@H](Cc3ccc(O)cc3)C(=O)N[C@@H](CCCCN)C(=O)N[C@@H](CC(N)=O)C(=O)O)NC(=O)[C@H](C(C)C)NC(=O)[C@H](CCCCN)NC(=O)[C@H](CO)NC(=O)[C@H](CCCCN)NC(=O)[C@@H]3CSSC[C@H](NC(=O)[C@H](CO)NC(=O)[C@H](CCC(=O)O)NC(=O)CNC(=O)[C@@H](NC(=O)[C@@H]4CCCN4C(=O)[C@H](Cc4ccccc4)NC(=O)CN)CSSC[C@H](NC(=O)CNC1=O)C(=O)N[C@@H](CO)C(=O)N3)C(=O)N[C@@H](C(C)C)C(=O)N[C@@H](Cc1ccc(O)cc1)C(=O)N[C@@H]([C@@H](C)CC)C(=O)N1CCC[C@H]1C(=O)N2` (H-GFPCGESCVYIPCFTAAIGCSCKSKVCYKN-OH; disulfide 4-20, 8-22, 13-27), the Activity in test [1] was determined as 67; in test [2], 69; in test [3] it was 19; in test [4] it was 9.7; in test [5] it was 5.8; in [6], 3.2. For the same molecule, the Activity in test [7] turned out to be 5.5; in test [10] it was 91%; in test [11], 3.1; in test [12] it was 28; in test [15] it was 44; in test [16] it was 180. The Activity turned out to be 1.5 in [17], 3 in test [18], 2 in [19] and 6.5 in test [20]. Further, the Time is recorded as 690 s in test [8], 1000 s in [9], 78 s in test [13] and 76 s in test [14].
